The values below come from ChEMBL document CHEMBL1201862, “PubChem BioAssay data set” (2004).

The structures appear in SMILES notation.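 Assay format: 96-well plates, 48-hour exposure. The concentration for 50% growth inhibition is given as GI50.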 Activity calls are given as the source filed them. Rule as the data show it: active = GI50 up to about 1.1 µM and inactive = higher.

What all share (assay): NCI-60 cell line screen, 48 h
Test [1] deals with OVCAR-8.
For test [2], the system named is HT-29.
Test [3] concerns COLO 205.
Test [4] relates to SF-539.
Test [5] relates to BT-549.
In test [6] the test system is A498.
Test [7] deals with TK-10.
Test [8] deals with SNB-75.
Test [9] relates to KM12.
Test [10] deals with SR.
Test [11] concerns SW-620.
In test [12] the test system is DU-145.
Test [13] deals with OVCAR-5.
In test [14] the test system is U-251.
Test [15] relates to SNB-19.
Test [16] relates to HL-60.
The subject of test [17] is OVCAR-4.
Test [18] concerns SK-OV-3.
Test [19] relates to 786-0.
For test [20], the system named is NCI-H522.

In the case of `COc1nncc2[nH]c(-c3ccccc3)cc12`, the GI50 is 92.5 µM (inactive) in [1]; > 100 µM (inactive) in test [2]; > 100 µM (inactive) in test [3]; > 100 µM (inactive) in test [4]; 40.5 µM (inactive) in test [5]; 22.3 µM (inactive) in test [6]. Moreover, the GI50 was 53.1 µM (inactive) in test [7]; 58.1 µM (inactive) in [8]; > 100 µM (inactive) in test [9]; 37.5 µM (inactive) in test [10]; > 100 µM (inactive) in test [11]; 90.4 µM (inactive) in test [12]. The GI50 in test [13] was > 100 µM (inactive); in test [14], 49 µM (inactive); in [15], > 100 µM (inactive); in test [16], 30.9 µM (inactive); in test [17] it was 93.5 µM (inactive); in [18], > 100 µM (inactive). In [19], the GI50 was 70 µM (inactive).

On to `O=CC(O)C(O)C(O)C(O)COC(=O)NCCCCC(=O)C(F)(F)C(F)(F)C(F)(F)C(F)(F)C(F)(F)C(F)(F)C(F)(F)F` (stereo not given), for which the GI50 in [2] is 32.7 µM (inactive); in test [3], 30.5 µM (inactive); in test [4], 19.8 µM (inactive); in test [5] it was 16.1 µM (inactive); in test [6], 20.7 µM (inactive); in [7], 70.5 µM (inactive). For the same compound, the GI50 is 22.9 µM (inactive) in test [8]; 19.1 µM (inactive) in test [9]; 28.2 µM (inactive) in [10]; 19.9 µM (inactive) in [11]; 47.6 µM (inactive) in test [12]; 17.2 µM (inactive) in [13]. In addition, the GI50 is > 10 µM (inactive) in [14]; 16 µM (inactive) in test [15]; 27.4 µM (inactive) in test [16]; 51.8 µM (inactive) in test [17]; 21.7 µM (inactive) in [18]; 32.7 µM (inactive) in test [19].

For the compound `CC(=O)N1c2ccccc2[C@H]2CCc3c([nH]c4ccccc34)[C@H]21`, the GI50 is 25.3 µM (inactive) in test [1]; 8.11 µM (inactive) in test [2]; 13.2 µM (inactive) in test [3]; 11.8 µM (inactive) in test [4]; 11 µM (inactive) in test [5]; 20.4 µM (inactive) in [20]. The GI50 in test [6] was 17.5 µM (inactive); in [7], 41.5 µM (inactive); in [8] it was 18.4 µM (inactive); in [9] it was 11.1 µM (inactive); in test [11], 12 µM (inactive); in [12], 20.1 µM (inactive). In addition, the GI50 was 26.9 µM (inactive) in test [13]; 12.7 µM (inactive) in test [14]; 24.3 µM (inactive) in [15]; 12.4 µM (inactive) in [16]; 28.3 µM (inactive) in test [18]; 15 µM (inactive) in test [19].

Regarding `C=CCCC1(CCP(=O)(c2ccccc2)c2ccccc2)OCCO1`, the GI50 in test [1] was > 100 µM (inactive); in test [2] it was > 100 µM (inactive); in [3], > 100 µM (inactive); in test [4] it was > 100 µM (inactive); in [5] it was > 100 µM (inactive); in test [20], 64.3 µM (inactive). Besides, the GI50 in test [7], in test [8], in [9], in test [10], in test [11] and in test [12] was > 100 µM (inactive) in each case. Besides, the GI50 in [13], in test [14], in [15], in [16] and in test [19] was > 100 µM (inactive) in each case.

Turning to `C[C@H](C(=O)N1C(=O)O[C@@H](c2ccccc2)[C@H]1C)[C@H](c1ccccc1)N(Cc1ccccc1)OC(=O)c1ccccc1`, the GI50 was 37.5 µM (inactive) in [1]; 26.4 µM (inactive) in test [2]; 38.5 µM (inactive) in [3]; 71.3 µM (inactive) in test [4]; 38.3 µM (inactive) in [5]; 29.1 µM (inactive) in test [20]. Further, the GI50 in [6] is > 100 µM (inactive); in test [7] it was 90.6 µM (inactive); in test [8], 29.9 µM (inactive); in test [9] it was 49.3 µM (inactive); in [11], 70.3 µM (inactive); in [12] it was 66.1 µM (inactive). Besides, the GI50 in test [13] is 68.1 µM (inactive); in [14] it was 31.9 µM (inactive); in [15], 35 µM (inactive); in [16] it was 29 µM (inactive); in [17], 21 µM (inactive); in [18] it was 38.8 µM (inactive). The GI50 in test [19] was 57.4 µM (inactive).

With `COc1cc2c(cc1O)CCN[C@@]21CS[C@H]2c3c(OC(C)=O)c(C)c4c(c3C(COC1=O)N1C2C2NC(Cc3cc(C)c(OC)c(O)c32)[C@@H]1O)OCO4` (stereo not given in full), the GI50 in test [1], in [2], in test [3], in [4], in test [5] and in test [20] was < 0.01 µM (active) in each case. In addition, the GI50 in test [6], in test [7], in test [9], in test [11], in test [12] and in test [13] was < 0.01 µM (active) each time. Besides, the GI50 in test [14], in test [15], in test [16], in test [17], in test [18] and in test [19] was < 0.01 µM (active) in each case.

Regarding `COc1ccc2oc3c(C)cc4c(OC)nnc(OC)c4c3c2c1`, the GI50 was 6.65 µM (inactive) in [1]; 4.57 µM (inactive) in [2]; 10.8 µM (inactive) in test [3]; 7.89 µM (inactive) in [4]; > 100 µM (inactive) in [5]; 6.76 µM (inactive) in [20]. The GI50 in [6] was 17.4 µM (inactive); in test [7] it was 16.9 µM (inactive); in [8], 4.88 µM (inactive); in test [9] it was 27.4 µM (inactive); in test [11], 7.57 µM (inactive); in test [12], > 100 µM (inactive). For the same compound, the GI50 in [13] was > 100 µM (inactive); in test [14] it was 1.98 µM (inactive); in test [15], 13.6 µM (inactive); in [16], 13.5 µM (inactive); in test [17], 34.6 µM (inactive); in [18], > 100 µM (inactive). Moreover, the GI50 in test [19] was 7.52 µM (inactive).

`CC(O)CCNC(=O)Nc1c(C(F)(F)F)cc(-c2ccccc2)[nH]c1=O` (stereo not given): the GI50 in [1], in [2], in test [3], in [5], in [20] and in test [6] was > 100 µM (inactive) each time. Also, the GI50 in test [7], in test [8], in test [9], in [11], in test [12] and in [13] was > 100 µM (inactive) throughout. Also, the GI50 was > 100 µM (inactive) in [14]; > 100 µM (inactive) in [15]; 67.9 µM (inactive) in test [16]; > 100 µM (inactive) in [17]; > 100 µM (inactive) in test [18]; > 100 µM (inactive) in test [19].

Turning to `COc1ccc([N+](=O)[O-])c2c(NCCCN(C)C)ccnc12`, the GI50 is 10.8 µM (inactive) in test [1]; 3.66 µM (inactive) in [2]; 2.39 µM (inactive) in test [3]; 4.6 µM (inactive) in [4]; 2.21 µM (inactive) in [5]; 1.46 µM (inactive) in [20]. The GI50 was 2.33 µM (inactive) in test [6]; 10.2 µM (inactive) in test [7]; 1.28 µM (inactive) in [8]; 7 µM (inactive) in test [9]; 4.7 µM (inactive) in [11]; 5.42 µM (inactive) in test [12]. Also, the GI50 in [13] is 5.9 µM (inactive); in test [14] it was 4.93 µM (inactive); in [15], 8.3 µM (inactive); in test [16], 5.14 µM (inactive); in [17] it was 1.51 µM (inactive); in test [18], 11.2 µM (inactive). Also, the GI50 in test [19] is 8.36 µM (inactive).

As to `O=c1[nH]c2ccc(CC(=S)N3CCN(c4ccccc4)CC3)cc2s1`, the GI50 is 14.3 µM (inactive) in [1]; 51.8 µM (inactive) in test [2]; 57.1 µM (inactive) in test [3]; 28 µM (inactive) in test [4]; 26.6 µM (inactive) in [5]; 62.2 µM (inactive) in [6]. For the same compound, the GI50 in [7] is 36.6 µM (inactive); in test [9], 26.2 µM (inactive); in test [10] it was 19.9 µM (inactive); in test [11], 71.9 µM (inactive); in test [12] it was 51.6 µM (inactive); in [13], 15.7 µM (inactive). Moreover, the GI50 in test [14] is 3.95 µM (inactive); in [15], > 100 µM (inactive); in [16], > 100 µM (inactive); in test [18], 15.7 µM (inactive); in [19] it was 34.4 µM (inactive).

Turning to `COc1c(C)c(C/C=C(\C)CC/C=C(\C)CCC=C(C)C)c(OC)c(OC)c1OC`, the GI50 was > 100 µM (inactive) in [1]; 76.2 µM (inactive) in test [2]; > 100 µM (inactive) in test [3]; > 100 µM (inactive) in [4]; > 100 µM (inactive) in [5]; 41.3 µM (inactive) in test [20]. Further, the GI50 in test [7] is > 100 µM (inactive); in [8] it was > 100 µM (inactive); in test [9], > 100 µM (inactive); in test [10], 66.4 µM (inactive); in test [11], > 100 µM (inactive); in [12], > 100 µM (inactive). Moreover, the GI50 in test [13], in test [14], in test [15], in [17], in test [18] and in test [19] was > 100 µM (inactive) throughout.
